This is an account of results in PMC6532841 (PLoS Genetics, 2019).

Holding throughout (test): cAMP inhibition assay (ALPHAScreen), transfected CHO-K1
What all share (type): cell-based

The target of assay [1] is T1, human HCA2 (Homo sapiens, UniProt Q8TDS4).
T1 construct: gene HCAR2; full-length, N-terminal HA and C-terminal FLAG tag, pcDps, transient in CHO-K1
Conditions: read-out: HCA3 / Basal cAMP (% of mock-transfected). An excerpt:
cAMP inhibition assay (ALPHAScreen), transfected CHO-K1 on human HCA2

Assay [2] addresses T2, orangutan HCA2 (Pongo abelii, UniProt A0A8I5YUU0).
T2 construct: gene HCAR2; full-length, HA/FLAG tags, CHO-K1
An excerpt: cAMP inhibition assay (ALPHAScreen), transfected CHO-K1 on orangutan HCA2

Assay [3] has as its target T3, mouse HCA2 (Mus musculus, UniProt Q9EP66).
T3 construct: gene Hcar2; full-length, N-terminal HA and C-terminal FLAG tag, CHO-K1
An excerpt:
cAMP inhibition assay (ALPHAScreen), transfected CHO-K1 on mouse HCA2

For assay [4], the target named is T4, human HCA3 (Homo sapiens, UniProt P49019).
T4 construct: gene HCAR3; full-length, N-terminal HA and C-terminal FLAG tag, pcDps, transient in CHO-K1
Conditions: read-out: EC50 (μM) (95% CI). An excerpt:
cAMP inhibition assay (ALPHAScreen), transfected CHO-K1 on human HCA3

In assay [5] the target is T5, siamang HCA3 (Symphalangus syndactylus, UniProt Z9POU2MJD9).
T5 construct: full-length, HA/FLAG tags, CHO-K1
Particulars: read-out: EC50 (μM) (95% CI). An excerpt:
cAMP inhibition assay (ALPHAScreen), transfected CHO-K1 on siamang HCA3

The target in assay [6] is T6, orangutan HCA3 (Pongo pygmaeus, UniProt A0A4Y1JWR4).
T6 construct: gene HCAR3; full-length, HA/FLAG tags, CHO-K1
Conditions: read-out: EC50 (μM) (95% CI). An excerpt: cAMP inhibition assay (ALPHAScreen), transfected CHO-K1 on orangutan HCA3

In assay [7] the target is T7, chimpanzee HCA3 (Pan troglodytes, UniProt A0A2J8MD62).
T7 construct: gene HCAR3; full-length, HA/FLAG tags, CHO-K1
Conditions: agonist; 2 μM forskolin; HBSS. An excerpt: cAMP inhibition assay (ALPHAScreen), transfected CHO-K1 on chimpanzee HCA3

Assay [8] addresses T8, gorilla HCA1 (Gorilla gorilla, UniProt A0A2I2YNR0).
T8 construct: gene HCAR1; full-length, HA/FLAG tags, CHO-K1
An excerpt:
cAMP inhibition assay (ALPHAScreen), transfected CHO-K1 on gorilla HCA1

In assay [9] the target is T9, chimpanzee HCA1 (Pan troglodytes, UniProt A0A2I3T0E0).
T9 construct: gene HCAR1; full-length, HA/FLAG tags, CHO-K1
An excerpt: cAMP inhibition assay (ALPHAScreen), transfected CHO-K1 on chimpanzee HCA1

Assay [10] concerns the target T10, mouse HCA1 (Mus musculus, UniProt Q8C131).
T10 construct: gene Hcar1; full-length, N-terminal HA and C-terminal FLAG tag, CHO-K1
T10 sequence (Q8C131 1-343): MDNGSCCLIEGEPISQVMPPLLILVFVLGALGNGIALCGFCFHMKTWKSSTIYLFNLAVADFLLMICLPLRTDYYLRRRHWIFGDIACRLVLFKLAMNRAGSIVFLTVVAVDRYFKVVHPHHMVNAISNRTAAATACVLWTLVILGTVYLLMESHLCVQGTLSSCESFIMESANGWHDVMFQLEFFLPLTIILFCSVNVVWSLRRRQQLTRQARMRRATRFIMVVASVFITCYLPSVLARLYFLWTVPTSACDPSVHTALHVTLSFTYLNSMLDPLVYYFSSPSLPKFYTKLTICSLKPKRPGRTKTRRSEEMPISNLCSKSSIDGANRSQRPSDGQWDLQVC
An excerpt: cAMP inhibition assay (ALPHAScreen), transfected CHO-K1 on mouse HCA1

The target in assay [11] is T11, human HCA1 (Homo sapiens, UniProt Q9BXC0).
T11 construct: gene HCAR1; full-length, N-terminal HA and C-terminal FLAG tag, pcDps, transient in CHO-K1
Conditions: read-out: HCA2 / Basal cAMP (% of mock-transfected). An excerpt: cAMP inhibition assay (ALPHAScreen), transfected CHO-K1 on human HCA1

T2 sequence (A0A8I5YUU0 1-363): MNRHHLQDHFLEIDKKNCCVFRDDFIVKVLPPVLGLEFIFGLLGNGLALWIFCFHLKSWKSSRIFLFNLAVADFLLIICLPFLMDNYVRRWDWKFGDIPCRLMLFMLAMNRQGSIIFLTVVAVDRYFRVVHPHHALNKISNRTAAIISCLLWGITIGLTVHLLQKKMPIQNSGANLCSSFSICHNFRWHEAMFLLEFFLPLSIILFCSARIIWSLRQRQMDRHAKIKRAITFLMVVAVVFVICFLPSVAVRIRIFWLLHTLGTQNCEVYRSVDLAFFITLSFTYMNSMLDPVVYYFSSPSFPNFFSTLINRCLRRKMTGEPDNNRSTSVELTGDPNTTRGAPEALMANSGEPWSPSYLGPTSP
T4 sequence (P49019 whole entry): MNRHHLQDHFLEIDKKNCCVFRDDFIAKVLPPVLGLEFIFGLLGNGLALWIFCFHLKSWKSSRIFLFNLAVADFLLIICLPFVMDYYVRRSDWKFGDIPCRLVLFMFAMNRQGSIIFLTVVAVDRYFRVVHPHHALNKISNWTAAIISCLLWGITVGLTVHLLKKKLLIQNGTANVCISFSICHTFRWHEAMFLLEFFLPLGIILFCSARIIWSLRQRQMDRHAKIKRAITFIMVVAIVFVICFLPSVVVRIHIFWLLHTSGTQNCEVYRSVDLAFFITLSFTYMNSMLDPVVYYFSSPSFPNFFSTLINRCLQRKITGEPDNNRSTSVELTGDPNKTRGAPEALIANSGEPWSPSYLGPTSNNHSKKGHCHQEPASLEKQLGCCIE
T6 sequence (A0A4Y1JWR4 1-363): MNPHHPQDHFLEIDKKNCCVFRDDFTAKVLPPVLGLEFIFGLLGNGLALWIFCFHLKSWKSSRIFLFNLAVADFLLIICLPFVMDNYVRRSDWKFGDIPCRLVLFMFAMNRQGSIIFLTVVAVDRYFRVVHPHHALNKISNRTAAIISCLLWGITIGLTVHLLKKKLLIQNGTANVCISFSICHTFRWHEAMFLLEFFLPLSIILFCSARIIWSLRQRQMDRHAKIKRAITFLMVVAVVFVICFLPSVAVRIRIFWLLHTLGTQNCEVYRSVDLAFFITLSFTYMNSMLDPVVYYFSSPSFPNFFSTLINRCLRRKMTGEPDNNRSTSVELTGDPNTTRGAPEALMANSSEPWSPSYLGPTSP
T1 sequence (Q8TDS4 whole entry): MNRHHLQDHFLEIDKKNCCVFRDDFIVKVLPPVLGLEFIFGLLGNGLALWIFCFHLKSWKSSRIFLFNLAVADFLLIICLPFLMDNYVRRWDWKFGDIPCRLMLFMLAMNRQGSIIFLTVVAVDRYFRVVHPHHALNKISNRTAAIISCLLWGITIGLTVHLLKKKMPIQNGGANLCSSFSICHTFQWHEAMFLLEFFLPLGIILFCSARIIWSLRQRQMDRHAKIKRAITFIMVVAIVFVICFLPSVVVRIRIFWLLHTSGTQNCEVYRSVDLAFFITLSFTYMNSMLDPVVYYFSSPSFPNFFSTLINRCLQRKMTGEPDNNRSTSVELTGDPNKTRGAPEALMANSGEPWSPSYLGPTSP
T9 sequence (A0A2I3T0E0 1-346): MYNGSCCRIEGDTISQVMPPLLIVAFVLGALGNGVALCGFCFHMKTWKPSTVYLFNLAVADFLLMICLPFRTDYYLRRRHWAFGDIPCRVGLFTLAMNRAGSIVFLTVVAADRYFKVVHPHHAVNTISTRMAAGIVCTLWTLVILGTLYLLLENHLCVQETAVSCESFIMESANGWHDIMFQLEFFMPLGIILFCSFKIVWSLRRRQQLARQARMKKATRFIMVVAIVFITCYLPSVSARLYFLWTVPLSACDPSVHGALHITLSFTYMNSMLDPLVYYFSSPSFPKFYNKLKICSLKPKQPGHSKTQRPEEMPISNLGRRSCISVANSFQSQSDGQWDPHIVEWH
T11 sequence (Q9BXC0 whole entry): as the sequence (A0A2I3T0E0 1-346) above, with M131V, T141A, L148V, L249S counted along it
T3 sequence (Q9EP66 whole entry): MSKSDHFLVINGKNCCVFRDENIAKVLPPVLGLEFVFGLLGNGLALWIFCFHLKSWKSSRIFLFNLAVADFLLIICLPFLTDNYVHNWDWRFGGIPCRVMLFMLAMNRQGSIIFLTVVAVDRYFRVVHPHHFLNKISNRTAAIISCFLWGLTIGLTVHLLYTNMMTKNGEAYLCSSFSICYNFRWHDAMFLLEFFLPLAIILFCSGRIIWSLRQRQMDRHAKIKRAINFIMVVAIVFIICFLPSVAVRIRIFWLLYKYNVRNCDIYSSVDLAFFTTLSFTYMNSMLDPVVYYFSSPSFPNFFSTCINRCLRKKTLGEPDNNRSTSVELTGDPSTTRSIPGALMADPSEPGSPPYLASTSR
T8 sequence (A0A2I2YNR0 1-346): as the sequence (A0A2I3T0E0 1-346) above, with I23V, L249S counted along it

On to `C[C@@H](O)CC(=O)O` [D-3HB], for which the EC50 in [1] amounted to 530 µM; in assay [2], 680 µM; in assay [3], 1030 µM.

In the case of `O=C(O)[C@H](O)Cc1ccccc1` [D-PLA], the EC50 in assay [4] amounted to 0.15 µM; in assay [5], 0.28 µM; in assay [6], 1.2 µM. The “EC50 (μM) (95% CI)” value in assay [7] is listed as 0.13 (0.08–0. 22) μM.

For the molecule `C[C@H](O)C(=O)O` [L-lactate], the EC50 in assay [8] was 2300 µM; in [9], 4100 µM; in [10], 2900 µM; in [11], 2400 µM.
